“And” between values parts separate entries of the source, which are not always exact repeats. Equal entries are not always repeated.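 Protocol summary: plate cells (96-well), add compound at 5 concentrations, incubate 48 h, interpolate endpoints linearly. GI50 is the concentration that inhibits growth by half. The concentration for full growth arrest is given as TGI.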
Legend:
Test in all cases: DTP human tumour cell line panel, 48 h
[1] = test system: NCI-H226 lung
[2] = test system: HL-60(TB) leukemia
[3] = test system: OVCAR-5 ovarian
[4] = test system: NCI/ADR-RES ovarian
[5] = test system: MCF7 breast
[6] = test system: K-562 leukemia
[7] = test system: SK-MEL-5 melanoma
[8] = test system: RPMI-8226 leukemia
[9] = test system: SK-OV-3 ovarian
[10] = test system: HOP-92 NSCLC

Compound: O=C(O)/C=C\C(=O)Nc1ccc2c(c1)C(=O)c1cc(F)ccc1-2
- TGI [1]: > 100 µM
- TGI [2]: > 100 µM
- TGI [3]: > 100 µM
- TGI [4]: > 100 µM
- TGI [5]: > 100 µM
- TGI [6]: > 100 µM
- TGI [7]: > 100 µM
- TGI [8]: > 100 µM
- TGI [9]: > 100 µM
- TGI [10]: > 100 µM

Compound: S=C(N/N=C(/c1ccccc1)c1ccccn1)Nc1cccc(Cl)c1
- GI50 [1]: 0.219 µM
- TGI [1]: 1.64 µM and 4.2 µM
- GI50 [2]: 0.0152 µM
- TGI [2]: 0.162 µM
- GI50 [3]: 0.05 µM
- TGI [3]: 4.47 µM
- GI50 [4]: 0.0619 µM
- TGI [4]: 4.38 µM
- GI50 [5]: 0.00544 µM
- TGI [5]: 0.918 µM and 6.01 µM
- GI50 [7]: 0.358 µM
- TGI [7]: 1.46 µM and 4.08 µM
- GI50 [8]: 0.00601 µM
- GI50 [9]: 0.0671 µM
- TGI [9]: 2.93 µM and 3.73 µM
- GI50 [10]: 1.65 µM
- TGI [10]: 13 µM

Compound: O=S(=O)(NCCCNc1cc(-c2cn(-c3ccccc3)nc2-c2cccc(O)c2)ccn1)c1ccc(Cl)cc1
- GI50 [1]: 1.77 µM
- TGI [1]: 5.13 µM
- GI50 [2]: 2.09 µM
- TGI [2]: 5.61 µM
- GI50 [3]: 2.04 µM
- TGI [3]: 5.64 µM
- GI50 [4]: 1.94 µM
- TGI [4]: 5.3 µM
- GI50 [5]: 1.84 µM
- TGI [5]: 5.01 µM
- GI50 [6]: 0.437 µM
- TGI [6]: 2.5 µM
- GI50 [7]: 1.23 µM
- TGI [7]: 2.55 µM
- GI50 [8]: 1.49 µM
- TGI [8]: 4.68 µM
- GI50 [9]: 2.35 µM
- TGI [9]: 7.35 µM
- GI50 [10]: 1.52 µM
- TGI [10]: 4.74 µM

Compound: CCN1CCN(C(=O)[C@]23CCC(C)(C)C[C@@H]2C2=CC[C@@H]4[C@@]5(C)C/C(=C/c6cccnc6)C(=O)C(C)(C)[C@@H]5CC[C@@]4(C)[C@]2(C)CC3)CC1
- GI50 [2]: 0.443 µM
- TGI [2]: 3.34 µM
- GI50 [3]: 1.56 µM
- TGI [3]: 3.35 µM
- GI50 [4]: 1.57 µM
- TGI [4]: 3.46 µM
- GI50 [5]: 1.4 µM
- TGI [5]: 3.07 µM
- GI50 [6]: 1.43 µM
- TGI [6]: > 100 µM
- GI50 [7]: 1.63 µM
- TGI [7]: 3 µM
- GI50 [8]: 0.959 µM
- TGI [8]: 5.13 µM
- GI50 [9]: 4.19 µM
- TGI [9]: 16.8 µM
- GI50 [10]: 1.06 µM
- TGI [10]: 3.26 µM

Compound: CC[C@]12CCCN3CC[C@]4(C(=C(C(=O)OC)C1)Nc1ccccc14)[C@@H]32
- GI50 [2]: 21.9 µM
- TGI [2]: 52 µM
- GI50 [3]: 15.9 µM
- TGI [3]: 34.1 µM
- GI50 [4]: 14.3 µM
- TGI [4]: 33.4 µM
- GI50 [5]: 16 µM
- TGI [5]: 33.8 µM
- GI50 [6]: 11.9 µM
- TGI [6]: 43.4 µM
- GI50 [7]: 15.4 µM
- TGI [7]: 28.8 µM
- GI50 [8]: 19.4 µM
- TGI [8]: 51.2 µM
- GI50 [10]: 7.09 µM
- TGI [10]: 24.6 µM

Compound: COc1ccc(Cn2c(Br)c3c(c2-c2cc(OC)c(OC)c(OC)c2)CCc2sc(NC(C)=O)nc2-3)cc1
- GI50 [1]: 39.3 µM
- TGI [1]: > 100 µM
- GI50 [2]: 3.27 µM
- TGI [2]: 8.06 µM
- GI50 [3]: 4.39 µM
- TGI [3]: > 100 µM
- GI50 [4]: 4.97 µM
- TGI [4]: > 100 µM
- GI50 [5]: 3.32 µM
- TGI [5]: > 100 µM
- GI50 [6]: 3.67 µM
- TGI [6]: > 100 µM
- GI50 [7]: 2.82 µM
- TGI [7]: 21.4 µM
- GI50 [8]: 4.23 µM
- TGI [8]: > 100 µM
- GI50 [10]: 1.88 µM
- TGI [10]: 9.64 µM

Compound: O=C1c2ccccc2C(=O)c2c1ccc1c2OCO1
- TGI [1]: > 100 µM
- TGI [2]: > 100 µM
- TGI [3]: > 100 µM
- TGI [4]: > 100 µM
- TGI [5]: > 100 µM
- TGI [7]: > 100 µM
- TGI [8]: > 100 µM
- TGI [9]: > 100 µM
- TGI [10]: > 100 µM

Compound: CC1=CC2C(C(C)C)CC1C1C(=O)OC(=O)C21 (stereo unspecified)
- TGI [1]: > 100 µM
- TGI [2]: 77.8 µM
- TGI [3]: > 100 µM
- TGI [4]: > 100 µM
- TGI [5]: > 100 µM
- TGI [6]: > 100 µM
- TGI [7]: > 100 µM
- TGI [9]: > 100 µM
- TGI [10]: > 100 µM

Compound: C[n+]1ccc(-c2c3nc(c(-c4ccc5c(ccc[n+]5C)c4)c4ccc([nH]4)c(-c4cc[n+](C)cc4)c4nc(c(-c5ccc6c(ccc[n+]6C)c5)c5ccc2[nH]5)C=C4)C=C3)cc1
- GI50 [2]: 9.19 µM
- TGI [2]: 17.2 µM
- GI50 [3]: > 50 µM
- TGI [3]: > 50 µM
- GI50 [4]: > 50 µM
- TGI [4]: > 50 µM
- GI50 [5]: 42.5 µM
- TGI [5]: > 50 µM
- GI50 [6]: 31.4 µM
- TGI [6]: > 50 µM
- GI50 [7]: 17.6 µM
- TGI [7]: > 50 µM
- GI50 [8]: > 50 µM
- TGI [8]: > 50 µM
- GI50 [9]: > 50 µM
- TGI [9]: > 50 µM
- GI50 [10]: 25.1 µM
- TGI [10]: > 50 µM

Compound: O=C1OC2C(O)C(=O)OC2C1O (stereo unspecified)
- TGI [1]: > 100 µM
- TGI [2]: > 100 µM
- TGI [3]: > 100 µM
- TGI [4]: > 100 µM
- TGI [5]: > 100 µM
- TGI [6]: > 100 µM
- TGI [7]: > 100 µM
- TGI [9]: > 100 µM
- TGI [10]: > 100 µM

Compound: COc1cc2c3c(n(CCCCl)c(=O)c2cc1OC)-c1ccc(C#N)cc1C3=O
- GI50 [1]: 16.7 µM
- TGI [1]: 94.9 µM
- GI50 [3]: 33.6 µM
- TGI [3]: > 100 µM
- GI50 [4]: 22.4 µM
- TGI [4]: > 100 µM
- GI50 [5]: 7.3 µM
- TGI [5]: > 100 µM
- GI50 [6]: > 100 µM
- TGI [6]: > 100 µM
- GI50 [7]: 90.9 µM
- TGI [7]: > 100 µM
- GI50 [8]: 3.97 µM
- TGI [8]: > 100 µM
- GI50 [9]: 15.2 µM
- TGI [9]: 44 µM
- GI50 [10]: 16.2 µM
- TGI [10]: 56.8 µM

Compound: CC(=O)c1ccc(NCN2C(=O)c3ccccc3C2=O)cc1
- TGI [2]: > 100 µM
- TGI [3]: > 100 µM
- TGI [4]: > 100 µM
- TGI [5]: > 100 µM
- TGI [6]: > 100 µM
- TGI [7]: > 100 µM
- TGI [8]: > 100 µM
- TGI [9]: > 100 µM
- TGI [10]: > 100 µM
